# Tests used:
# [1] = target: NPM/ALK (Nucleophosmin/ALK tyrosine kinase receptor) (Homo sapiens, UniProt Q9UM73); assay: Inhibition of human NPM-ALK phosphorylation using 4-MeUP substrate by cell based assay
# Insulin receptor = Insulin receptor (Homo sapiens, UniProt P06213); assay: Inhibition of IR
# [2] = target: ALK tyrosine kinase receptor (Homo sapiens, UniProt Q9UM73); assay: Inhibition of GST-tagged human ALK cytoplasmic domain (1058-1620) expressed in Sf21 insect cells using GST-tagged human recombinant PLC-gamma/substrate by ELISA
# Chain of ALK tyrosine kinase receptor (Q9UM73 whole entry, the tested form may be a part): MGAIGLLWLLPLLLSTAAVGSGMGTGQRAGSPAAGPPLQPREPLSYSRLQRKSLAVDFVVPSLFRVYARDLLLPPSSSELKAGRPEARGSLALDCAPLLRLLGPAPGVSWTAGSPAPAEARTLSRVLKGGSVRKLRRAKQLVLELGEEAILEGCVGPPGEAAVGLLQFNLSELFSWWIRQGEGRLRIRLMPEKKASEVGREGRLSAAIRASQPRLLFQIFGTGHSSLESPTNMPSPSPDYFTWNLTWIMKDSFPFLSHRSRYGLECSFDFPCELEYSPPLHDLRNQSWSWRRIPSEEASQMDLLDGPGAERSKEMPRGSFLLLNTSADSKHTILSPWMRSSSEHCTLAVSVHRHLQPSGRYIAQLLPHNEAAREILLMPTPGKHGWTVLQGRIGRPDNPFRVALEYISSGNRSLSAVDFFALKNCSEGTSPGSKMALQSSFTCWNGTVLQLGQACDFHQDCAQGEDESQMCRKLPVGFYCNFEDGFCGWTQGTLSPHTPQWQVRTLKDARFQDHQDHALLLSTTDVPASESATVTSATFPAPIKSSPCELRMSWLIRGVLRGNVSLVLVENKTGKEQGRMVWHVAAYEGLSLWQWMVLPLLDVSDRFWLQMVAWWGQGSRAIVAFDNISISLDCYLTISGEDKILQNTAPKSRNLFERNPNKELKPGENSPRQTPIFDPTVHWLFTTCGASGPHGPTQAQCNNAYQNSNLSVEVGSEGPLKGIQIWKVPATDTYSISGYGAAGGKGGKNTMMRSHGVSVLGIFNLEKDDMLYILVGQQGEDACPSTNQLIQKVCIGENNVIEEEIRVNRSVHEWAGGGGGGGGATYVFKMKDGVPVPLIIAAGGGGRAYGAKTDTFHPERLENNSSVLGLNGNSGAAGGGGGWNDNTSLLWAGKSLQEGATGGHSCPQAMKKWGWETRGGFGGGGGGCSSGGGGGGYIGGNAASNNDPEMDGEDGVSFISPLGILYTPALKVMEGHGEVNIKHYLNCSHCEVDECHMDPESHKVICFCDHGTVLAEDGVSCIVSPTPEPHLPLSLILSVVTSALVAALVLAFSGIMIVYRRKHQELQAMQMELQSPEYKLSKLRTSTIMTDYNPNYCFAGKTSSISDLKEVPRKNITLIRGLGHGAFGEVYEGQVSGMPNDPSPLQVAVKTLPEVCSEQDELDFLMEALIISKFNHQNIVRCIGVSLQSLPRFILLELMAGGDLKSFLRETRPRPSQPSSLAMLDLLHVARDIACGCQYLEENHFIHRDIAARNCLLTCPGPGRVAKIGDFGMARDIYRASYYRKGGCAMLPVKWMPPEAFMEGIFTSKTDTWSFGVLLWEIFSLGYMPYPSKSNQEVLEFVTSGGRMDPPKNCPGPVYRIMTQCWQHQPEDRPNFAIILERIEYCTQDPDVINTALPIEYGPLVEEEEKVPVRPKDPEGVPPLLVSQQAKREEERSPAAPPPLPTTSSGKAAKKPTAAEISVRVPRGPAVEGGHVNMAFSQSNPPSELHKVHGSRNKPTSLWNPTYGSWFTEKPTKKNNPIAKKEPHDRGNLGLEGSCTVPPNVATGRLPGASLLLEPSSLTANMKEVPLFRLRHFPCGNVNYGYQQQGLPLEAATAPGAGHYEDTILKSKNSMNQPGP
# [3] = Clearance in Sprague-Dawley rat at 1 mg/kg, iv; assay type: ADME, organism-based; set-up: dose 1 mg/kg, route intravenous; conditions: in vivo
# [4] = Oral bioavailability in Sprague-Dawley rat at 5 mg/kg; assay type: ADME, organism-based; conditions: in vivo
# [5] = Half life in Sprague-Dawley rat at 1 mg/kg, iv; assay type: ADME, organism-based; set-up: dose 1 mg/kg, route intravenous; conditions: in vivo
# [6] = Half life in rat liver S9 fraction; assay type: ADME, subcellular
# [7] = Half life in Sprague-Dawley rat liver microsomes at 0.5 uM preincubated for 10 mins before NADPH and UDPGA challenge; assay type: ADME, Microsome
# [8] = Half life in CD1 mouse liver microsomes at 0.5 uM preincubated for 10 mins before NADPH and UDPGA challenge; assay type: ADME, Microsome
# [9] = Half life in human liver microsomes at 0.5 uM preincubated for 10 mins before NADPH and UDPGA challenge; assay type: ADME, Microsome
# [10] = Half life in monkey liver microsomes at 0.5 uM preincubated for 10 mins before NADPH and UDPGA challenge; assay type: ADME, Macaca mulatta, Microsome; conditions: rhesus monkey
# [11] = AUC (0 to t) in SCID mouse at 1 mg/kg, iv; assay type: ADME, organism-based; set-up: dose 1 mg/kg, route intravenous; conditions: plasma
# [12] = AUC (0 to t) in Sprague-Dawley rat at 5 mg/kg, po; assay type: ADME, organism-based; set-up: dose 5 mg/kg, route oral; conditions: plasma
# [13] = AUC (0 to t) in Sprague-Dawley rat at 1 mg/kg, iv; assay type: ADME, organism-based; set-up: dose 1 mg/kg, route intravenous; conditions: plasma
# Mus musculus [14] = assay: Toxicity in human SUP-M2 cells xenografted SCID mouse assessed as incidence of overt toxicity at 55 mg/kg, po BID measured 12 days post dose; assay type: organism-based; set-up: dose 55 mg/kg, route oral; conditions: in vivo, 288 h
# [15] = Cmax in SCID mouse at 10 mg/kg, po; assay type: ADME, organism-based; set-up: dose 10 mg/kg, route oral; conditions: in vivo
# [16] = Ratio of tumor concentration at 12 hrs to plasma concentration at 12 hrs in human SUP-M2 cells xenografted SCID mouse at 30 mg/kg, po administered as single dose; assay type: ADME, organism-based; set-up: dose 30 mg/kg, route oral
# [17] = Tmax in Sprague-Dawley rat at 5 mg/kg, po; assay type: ADME, organism-based; set-up: dose 5 mg/kg, route oral; conditions: in vivo
# [18] = Cmax in Sprague-Dawley rat at 5 mg/kg, po; assay type: ADME, organism-based; set-up: dose 5 mg/kg, route oral; conditions: in vivo
# [19] = Volume of distribution in Sprague-Dawley rat at 1 mg/kg, iv; assay type: ADME, organism-based; set-up: dose 1 mg/kg, route intravenous; conditions: in vivo
# Mus musculus [20] = assay: Toxicity in human SUP-M2 cells xenografted SCID mouse assessed as incidence of overt toxicity at 30 mg/kg, po BID measured 12 days post dose; assay type: organism-based; set-up: dose 30 mg/kg, route oral; conditions: in vivo, 288 h
# Mus musculus [21] = assay: Inhibition of NPM-ALK phosphorylation in human SUP-M2 cells xenografted in SCID mouse at 30 mg/kg, po administered as single dose measured 12 hrs post dose; assay type: functional; conditions: SUP-M2, 12 h
# [22] = Clearance in SCID mouse at 1 mg/kg, iv; assay type: ADME, organism-based; set-up: dose 1 mg/kg, route intravenous; conditions: in vivo
# Mus musculus [23] = assay: Toxicity in human SUP-M2 cells xenografted SCID mouse assessed as body weight loss at 55 mg/kg, po BID measured 12 days post dose; assay type: organism-based; set-up: dose 55 mg/kg, route oral; conditions: in vivo, 288 h
# Mus musculus [24] = assay: Toxicity in human SUP-M2 cells xenografted SCID mouse assessed as body weight loss at 30 mg/kg, po BID measured 12 days post dose; assay type: organism-based; set-up: dose 30 mg/kg, route oral; conditions: in vivo, 288 h
# [25] = Half life in SCID mouse at 1 mg/kg, iv; assay type: ADME, organism-based; set-up: dose 1 mg/kg, route intravenous; conditions: in vivo
# Plasma = assay: Ratio of plasma concentration at 12 hrs to plasma concentration at 24 hrs in human SUP-M2 cells xenografted SCID mouse at 30 mg/kg, po administered as single dose; assay type: ADME, organism-based; set-up: dose 30 mg/kg, route oral; conditions: in vivo
# [26] = AUC (0 to t) in SCID mouse at 10 mg/kg, po; assay type: ADME, organism-based; set-up: dose 10 mg/kg, route oral; conditions: plasma
# [27] = Volume of distribution in SCID mouse at 1 mg/kg, iv; assay type: ADME, organism-based; set-up: dose 1 mg/kg, route intravenous; conditions: in vivo
# [28] = Plasma concentration in human SUP-M2 cells xenografted SCID mouse at 30 mg/kg, po administered as single dose measured 12 hrs post dose; assay type: ADME, organism-based; set-up: dose 30 mg/kg, route oral
# [29] = Oral bioavailability in SCID mouse at 10 mg/kg; assay type: ADME, organism-based; conditions: in vivo
# [30] = Tmax in SCID mouse at 10 mg/kg, po; assay type: ADME, organism-based; set-up: dose 10 mg/kg, route oral; conditions: in vivo
# [31] = Half life in SCID mouse at 10 mg/kg, po; assay type: ADME, organism-based; set-up: dose 10 mg/kg, route oral; conditions: in vivo
# Chain of Insulin receptor (P06213 28-758 limits assumed): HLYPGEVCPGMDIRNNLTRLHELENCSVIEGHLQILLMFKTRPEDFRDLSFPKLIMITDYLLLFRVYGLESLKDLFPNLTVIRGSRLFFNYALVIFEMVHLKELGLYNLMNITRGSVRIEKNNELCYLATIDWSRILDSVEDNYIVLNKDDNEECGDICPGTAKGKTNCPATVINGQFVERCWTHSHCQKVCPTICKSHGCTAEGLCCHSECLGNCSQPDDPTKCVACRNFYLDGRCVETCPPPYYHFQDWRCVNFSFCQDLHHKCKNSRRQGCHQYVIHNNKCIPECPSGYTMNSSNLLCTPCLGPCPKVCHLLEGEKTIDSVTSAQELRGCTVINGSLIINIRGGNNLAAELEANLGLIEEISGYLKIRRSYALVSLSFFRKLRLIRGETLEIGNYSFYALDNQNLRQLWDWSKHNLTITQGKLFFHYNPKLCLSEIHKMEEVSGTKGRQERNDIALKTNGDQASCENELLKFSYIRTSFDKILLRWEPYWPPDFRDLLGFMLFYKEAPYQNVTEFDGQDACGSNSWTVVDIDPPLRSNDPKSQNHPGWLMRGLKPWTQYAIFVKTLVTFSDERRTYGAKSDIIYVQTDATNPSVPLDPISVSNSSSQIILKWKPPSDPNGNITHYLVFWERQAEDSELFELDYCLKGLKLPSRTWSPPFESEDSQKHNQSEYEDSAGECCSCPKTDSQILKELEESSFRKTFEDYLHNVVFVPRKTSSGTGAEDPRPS
# Chain of Insulin receptor (P06213 763-1382 limits assumed): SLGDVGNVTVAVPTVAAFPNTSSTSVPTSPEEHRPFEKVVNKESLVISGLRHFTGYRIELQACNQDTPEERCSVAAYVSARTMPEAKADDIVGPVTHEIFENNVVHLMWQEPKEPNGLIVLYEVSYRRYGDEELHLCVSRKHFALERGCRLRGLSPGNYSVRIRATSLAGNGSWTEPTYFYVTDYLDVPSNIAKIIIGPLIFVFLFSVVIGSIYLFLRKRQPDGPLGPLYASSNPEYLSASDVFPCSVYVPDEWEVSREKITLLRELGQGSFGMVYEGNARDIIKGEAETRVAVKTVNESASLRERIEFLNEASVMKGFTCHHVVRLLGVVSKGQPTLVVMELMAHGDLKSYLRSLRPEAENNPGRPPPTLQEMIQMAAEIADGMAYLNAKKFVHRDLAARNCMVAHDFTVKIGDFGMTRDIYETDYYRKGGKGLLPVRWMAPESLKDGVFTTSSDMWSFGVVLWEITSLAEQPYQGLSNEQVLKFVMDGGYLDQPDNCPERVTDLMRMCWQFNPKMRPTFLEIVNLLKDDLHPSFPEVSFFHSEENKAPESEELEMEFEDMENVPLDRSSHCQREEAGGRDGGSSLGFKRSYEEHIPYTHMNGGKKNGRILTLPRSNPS
# Chain of NPM/ALK (Nucleophosmin/ALK tyrosine kinase receptor) (Q9UM73 whole entry): as the sequence (Q9UM73 whole entry, the tested form may be a part) above
# Chain of NPM/ALK (Nucleophosmin/ALK tyrosine kinase receptor) (P06748 whole entry, further chain): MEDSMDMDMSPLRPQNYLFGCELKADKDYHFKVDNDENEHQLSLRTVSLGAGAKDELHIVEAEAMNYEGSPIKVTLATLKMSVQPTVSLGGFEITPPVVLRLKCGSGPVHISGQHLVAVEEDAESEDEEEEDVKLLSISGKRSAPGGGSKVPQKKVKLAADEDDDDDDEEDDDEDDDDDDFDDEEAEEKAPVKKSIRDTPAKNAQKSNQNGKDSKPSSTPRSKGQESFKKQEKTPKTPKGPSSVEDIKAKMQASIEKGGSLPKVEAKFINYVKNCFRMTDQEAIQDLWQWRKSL
smiles,measurement,setting,value
COc1ccc(-c2ccc3cnc(Nc4ccc(C5CCN(CC(N)=O)CC5)cc4OC)nn23)c(OC)c1,IC50,[1],500 nM
same,IC50,Insulin receptor,2970 nM
same,IC50,[2],12 nM
COc1cc(C2CCN(C)CC2)ccc1Nc1ncc2ccc(-c3ccccc3OC)n2n1,IC50,[1],70 nM
same,IC50,Insulin receptor,222 nM
same,clearance,[3],29 mL/min/kg
same,bioavailability,[4],3%
same,IC50,[2],6 nM
same,half-life,[5],84 min
COc1cc(C2CCN(C(=O)C(C)(C)N)CC2)ccc1Nc1ncc2ccc(-c3ccccc3OC)n2n1,IC50,[1],150 nM
same,IC50,Insulin receptor,579 nM
same,clearance,[3],25 mL/min/kg
same,bioavailability,[4],13%
same,half-life,[6],> 40 min
same,IC50,[2],7 nM
same,half-life at 0.5 µM,[7],> 40 min
same,half-life,[5],156 min
COc1cc(C2CCN(CC(N)=O)CC2)ccc1Nc1ncc2ccc(-c3ccccc3N(C)S(C)(=O)=O)n2n1,IC50,[1],80 nM
same,half-life at 0.5 µM,[8],29 min
same,IC50,Insulin receptor,552 nM
same,half-life at 0.5 µM,[9],< 5 min
same,IC50,[2],15 nM
same,half-life at 0.5 µM,[10],< 5 min
same,half-life at 0.5 µM,[7],< 5 min
COc1cc(C2CCN(CC(N)=O)CC2)ccc1Nc1ncc2ccc(-c3ccccc3OC)n2n1,AUC(0-t),[11],7550 ng·h/mL
same,IC50,[1],100 nM
same,AUC(0-t),[12],1760 ng·h/mL
same,half-life at 0.5 µM,[8],> 40 min
same,AUC(0-t),[13],1110 ng·h/mL
same,IC50,Insulin receptor,222 nM
same,clearance,[3],12 mL/min/kg
same,Activity,Mus musculus [14],Non-toxic
same,Cmax,[15],3470 ng/mL
same,Kp at 12 h,[16],2
same,half-life at 0.5 µM,[9],> 40 min
same,Tmax,[17],360 min
same,bioavailability,[4],43%
same,Cmax,[18],392 ng/mL
same,IC50,[2],6 nM
same,Vd,[19],3.5 L/kg
same,half-life at 0.5 µM,[10],> 40 min
same,half-life at 0.5 µM,[7],> 40 min
same,Activity,Mus musculus [20],Non-toxic
same,half-life,[5],204 min
same,inhibition in vivo at 30 mg/kg,Mus musculus [21],80%
same,clearance,[22],2 mL/min/kg
same,Activity,Mus musculus [23],Non-toxic
same,Activity,Mus musculus [24],Non-toxic
same,half-life,[25],360 min
same,Ratio,Plasma,7
same,AUC(0-t),[26],42500 ng·h/mL
same,Vd,[27],1.1 L/kg
same,concentration at 12 h,[28],6 µM
same,bioavailability,[29],56%
same,Tmax,[30],120 min
same,half-life,[31],264 min
COc1cc(C2CCN(C[C@@H](C)O)CC2)ccc1Nc1ncc2ccc(-c3ccccc3OC)n2n1,IC50,[1],100 nM
same,AUC(0-t),[12],11 ng·h/mL
same,half-life at 0.5 µM,[8],> 40 min
same,half-life at 0.5 µM,[9],> 40 min
same,bioavailability,[4],< 1%
same,half-life,[6],> 40 min
same,IC50,[2],3.4 nM
same,half-life at 0.5 µM,[10],21 min
same,half-life at 0.5 µM,[7],> 40 min
COc1cc(C2CCN(CC(N)=O)CC2)ccc1Nc1ncc2c(Cl)cc(-c3ccccc3N(C)S(C)(=O)=O)n2n1,IC50,[1],70 nM
same,half-life at 0.5 µM,[8],> 40 min
same,clearance,[3],≤ 4 mL/min/kg
same,half-life at 0.5 µM,[9],37 min
same,bioavailability,[4],41%
same,IC50,[2],4.7 nM
same,half-life at 0.5 µM,[10],15 min
same,half-life at 0.5 µM,[7],> 40 min
same,half-life,[5],> 120 min
same,inhibition in vivo at 30 mg/kg,Mus musculus [21],< 75%
COc1cc(C2CCN(CC(N)=O)CC2)ccc1Nc1ncc2c(C)cc(-c3ccccc3N(C)S(C)(=O)=O)n2n1,IC50,[1],70 nM
same,half-life at 0.5 µM,[8],> 40 min
same,clearance,[3],≤ 4 mL/min/kg
same,half-life at 0.5 µM,[9],18 min
same,bioavailability,[4],24%
same,IC50,[2],6 nM
same,half-life at 0.5 µM,[10],6 min
same,half-life at 0.5 µM,[7],31 min
same,half-life,[5],> 120 min
same,inhibition in vivo at 30 mg/kg,Mus musculus [21],< 75%
COc1cc(C2CCN(CC(N)=O)CC2)ccc1Nc1ncc2ccc(-c3ncccc3OC)n2n1,IC50,Insulin receptor,> 10000 nM
same,IC50,[2],1060 nM
COc1ccc(N2CCN(C)CC2)cc1Nc1ncc2ccc(-c3ccccc3OC)n2n1,IC50,[2],187 nM
COc1ccc(N2CCN(C)CC2)cc1Nc1ncc2ccc(-c3ccccc3N(C)S(C)(=O)=O)n2n1,IC50,[2],28 nM
COc1c(Nc2ncc3ccc(-c4ccccc4N(C)S(C)(=O)=O)n3n2)ccc(N2CCN(C[C@H](C)O)CC2)c1F,IC50,[2],56 nM

# From ChEMBL document CHEMBL2157957, “Strategies to mitigate the bioactivation of 2-anilino-7-aryl-pyrrolo[2,1-f][1,2,4]triazines: identification of orally bioavailable, efficacious ALK inhibitors” (J Med Chem, 2012)
